Measured values as given in ChEMBL document CHEMBL4483862, “Open-source discovery of chemical leads for next-generation chemoprotective antimalarials” (2018).

Test system: Plasmodium berghei
Assay: Luciferase/luciferin-expressing antifolate-resistant parasites were used to infect a culture of HepG2 cells that were pre-incubated with compounds. Infected hepatocytes emit light due to the luciferase reaction. Assay results are presented as the percent inhibition of light emission compared to control. […]
Type: functional
Conditions: sporozoite; for IC90: read-out: LUCIFERASE INFECTION ASSAY - IC90
[1] = read-out: LUCIFERASE INFECTION ASSAY - IC50

SMILES	IC90 [µM]	IC50 [1] [µM]	other results
CCCCCN1C(=O)/C(=N\n2c(-c3ccc(Cl)c(Cl)c3)cs/c2=N\c2cccc(C)c2C)c2ccccc21	> 10	–	IC50 (FFLUC_HILL_SLOPE 0.963, FFLUC_R_SQUARED 0.82, HEPG2TOX_HILL_SLOPE 0.0725, HEPG2TOX_R_SQUARED 0.0443, PBLUC_HILL_SLOPE 3.87, PBLUC_R_SQUARED 0.467, read-out: LUCIFERASE INFECTION ASSAY - IC50): 6.02 µM
Fc1cccc(-n2nnnc2-c2ccc(Cl)c(Cl)c2)c1	> 10.7	> 10.7	–
CN(C)C1(CNC(=O)c2ccc(Cl)c(S(=O)(=O)N(C)c3ccc(Cl)cc3)c2)CCCCC1	> 10	–	IC50 (PBLUC_HILL_SLOPE 3.05, PBLUC_R_SQUARED 0.312, read-out: LUCIFERASE INFECTION ASSAY - IC50): 8.97 µM
OCc1ccccc1-c1cn2c(-c3ccc(Oc4ccccc4)cc3)cnc2cn1	8.14	0.646	–
NC(Cc1ccccc1)c1csc(Nc2nncc3ccccc23)n1 (stereo unspecified)	3.88	–	IC50 (HEPG2TOX_HILL_SLOPE 16.4, HEPG2TOX_R_SQUARED 0.287, PBLUC_HILL_SLOPE 15.9, PBLUC_R_SQUARED 0.415, read-out: LUCIFERASE INFECTION ASSAY - IC50): 3.38 µM
CCNc1ccc(C(=O)OCC)cc1NC(=O)c1cccc(N(C)C)c1	2.65	–	IC50 (HEPG2TOX_HILL_SLOPE 1.36, HEPG2TOX_R_SQUARED 0.981, PBLUC_HILL_SLOPE 2.44, PBLUC_R_SQUARED 0.636, read-out: LUCIFERASE INFECTION ASSAY - IC50): 1.08 µM
COc1cccc(-c2cc3c(cn2)nc(NCCc2cc(OC)ccc2OC)n3C)c1	0.667	–	IC50 (HEPG2TOX_HILL_SLOPE 2.25, HEPG2TOX_R_SQUARED 0.767, PBLUC_HILL_SLOPE 1.04, PBLUC_R_SQUARED 0.785, read-out: LUCIFERASE INFECTION ASSAY - IC50): 0.0813 µM
COc1ccc(C(=O)N(c2nc3ccccc3s2)c2c(C)cccc2C)cc1	> 10	–	IC50 (HEPG2TOX_HILL_SLOPE 1.69, HEPG2TOX_R_SQUARED 0.759, PBLUC_HILL_SLOPE 12.9, PBLUC_R_SQUARED 0.198, read-out: LUCIFERASE INFECTION ASSAY - IC50): 9.04 µM
Cc1ccc(S(=O)(=O)Nc2ccc(Nc3nccn4c(-c5ccc(F)cc5)cnc34)cc2)cc1	4.49	–	IC50 (PBLUC_HILL_SLOPE 1.86, PBLUC_R_SQUARED 0.706, read-out: LUCIFERASE INFECTION ASSAY - IC50): 1.37 µM
CC(C)c1ccc(NC(=O)Nc2nc(C(N)COCc3ccccc3)cs2)cc1 (stereo unspecified)	> 8.04	–	IC50 (PBLUC_HILL_SLOPE 1.46, PBLUC_R_SQUARED 0.665, read-out: LUCIFERASE INFECTION ASSAY - IC50): 4.91 µM
CC12CCC(CC1=NNc1nc3ccccc3o1)C2(C)C (stereo unspecified)	> 10	–	IC50 (PBLUC_HILL_SLOPE 0.724, PBLUC_R_SQUARED 0.679, read-out: LUCIFERASE INFECTION ASSAY - IC50): 4.33 µM
CCOC(=O)/C(=C\c1cccc(Br)c1)C1=Nn2c(nnc2-c2ccc(OC)cc2)SC1	> 10	> 10	–
O=C1NC2(CCc3ccccc32)C(=O)N1Cc1cc2ccccc2nc1Cl (stereo unspecified)	> 10	–	IC50 (HEPG2TOX_HILL_SLOPE 1.06, HEPG2TOX_R_SQUARED 0.864, read-out: LUCIFERASE INFECTION ASSAY - IC50): > 10 µM
Cc1c(C(=O)OC(C)C(=O)N2CCN(Cc3ccccc3)CC2)sc2nc3n(c(=O)c12)CCC3 (stereo unspecified)	> 10	–	IC50 (PBLUC_HILL_SLOPE 12.6, PBLUC_R_SQUARED 0.201, read-out: LUCIFERASE INFECTION ASSAY - IC50): 9 µM
Cc1nn(Cc2ccccc2Cl)c(C)c1CN(C)C(=O)/C=C/c1cnn(-c2ccccc2)c1	9.8	–	IC50 (HEPG2TOX_HILL_SLOPE 2.95, HEPG2TOX_R_SQUARED 0.991, PBLUC_HILL_SLOPE 3.77, PBLUC_R_SQUARED 0.729, read-out: LUCIFERASE INFECTION ASSAY - IC50): 5.47 µM
Cc1cc(CN(C)CC(=O)Nc2sc3c(c2C(=O)Nc2ccc(Cl)cc2)CCCC3)no1	> 10	–	IC50 (FFLUC_HILL_SLOPE 4.26, FFLUC_R_SQUARED 0.612, PBLUC_HILL_SLOPE 24.8, PBLUC_R_SQUARED 0.242, read-out: LUCIFERASE INFECTION ASSAY - IC50): 9.19 µM
COc1ccc(-c2cnc3cnc(-c4ccc(CNc5ccccc5)cc4)cn23)cc1	> 8.12	–	IC50 (FFLUC_HILL_SLOPE 9.54, FFLUC_R_SQUARED 0.167, PBLUC_HILL_SLOPE 2.96, PBLUC_R_SQUARED 0.482, read-out: LUCIFERASE INFECTION ASSAY - IC50): 4.66 µM
Cc1ccc2cc(Cn3cc(Br)ccc3=O)c(Cl)nc2c1C	3.58	–	IC50 (PBLUC_HILL_SLOPE 15.2, PBLUC_R_SQUARED 0.445, read-out: LUCIFERASE INFECTION ASSAY - IC50): 3.1 µM
Cc1ccc(S(=O)(=O)NNC(=O)COc2ccc(SC(F)(F)F)cc2)cc1	> 7.85	–	IC50 (PBLUC_HILL_SLOPE 0.658, PBLUC_R_SQUARED 0.0672, read-out: LUCIFERASE INFECTION ASSAY - IC50): > 7.85 µM
COc1ccc(C)cc1-n1c(=O)c2ccccc2n2c(SC)nnc12	> 10	> 10	–
CCN(C(=O)COC(=O)c1nc(-c2ccccc2)n2c1CCCCC2)c1ccccc1	> 10	> 10	–
N#Cc1ccccc1S(=O)(=O)NC(=O)Cn1cc(-c2cccc(F)c2)nn1	> 8.56	> 8.56	–

SMILES	IC90 [µM]	IC50 [1] [µM]	other results
Cc1cc2nc(NC3=NCN(Cc4cccnc4)CN3)nc(C)c2cc1C	> 9.13	> 9.13	–
COCOc1ccc(-c2cc(-c3ccc(S(C)(=O)=O)cc3)cnc2N)cc1	1.3	–	IC50 (PBLUC_HILL_SLOPE 4.16, PBLUC_R_SQUARED 0.931, read-out: LUCIFERASE INFECTION ASSAY - IC50): 0.765 µM
Cc1ccc(-n2c(SCCCC(=O)c3cccs3)nnc2-c2ccccc2)cc1C	> 10	–	IC50 (FFLUC_HILL_SLOPE 1.75, FFLUC_R_SQUARED 0.116, read-out: LUCIFERASE INFECTION ASSAY - IC50): > 10 µM
O=S(=O)(Nc1ccc(OC(F)F)c(Cl)c1)c1ccc(Cl)c(Cl)c1	> 10	> 10	–
CN(NC(=O)c1cccc(C(F)(F)F)c1)c1c(C#N)c(C(F)(F)F)nn1C	> 8.43	> 8.43	–
Cc1[nH]c2ccccc2c1Sc1ccc(Cl)cc1	> 12.1	> 12.1	–
O=C(Cn1ncc(Cl)c(Cl)c1=O)Nc1ccc(F)c(F)c1F	9.46	–	IC50 (HEPG2TOX_HILL_SLOPE 271, HEPG2TOX_R_SQUARED 0.59, PBLUC_HILL_SLOPE 12.5, PBLUC_R_SQUARED 0.106, read-out: LUCIFERASE INFECTION ASSAY - IC50): 7.93 µM
CC(C)(C)c1ccc(C(=O)Nc2cc(F)ccc2F)s1	0.55	–	IC50 (PBLUC_HILL_SLOPE 0.906, PBLUC_R_SQUARED 0.913, read-out: LUCIFERASE INFECTION ASSAY - IC50): 0.0487 µM
O=C(Cc1csc(-c2ncccn2)n1)Oc1ccc(N2CCCC2=O)cc1	> 10	> 10	–
COc1cccc(-n2c(=O)c3ccccc3n3c(SCc4cc(=O)n5ccsc5n4)nnc23)c1	> 10	> 10	–
Clc1ccc(CSC2=NNC(c3ccccn3)S2)cc1 (stereo unspecified)	9.43	–	IC50 (HEPG2TOX_HILL_SLOPE 8.57, HEPG2TOX_R_SQUARED 0.799, PBLUC_HILL_SLOPE 12, PBLUC_R_SQUARED 0.743, read-out: LUCIFERASE INFECTION ASSAY - IC50): 7.86 µM
CCn1c(NC(=O)Cc2c(Cl)cccc2Cl)nc2ccccc21	6.27	–	IC50 (PBLUC_HILL_SLOPE 118, PBLUC_R_SQUARED 0.0721, read-out: LUCIFERASE INFECTION ASSAY - IC50): 6.16 µM
COc1ccc(/C=C2\CCCC3C2=NN(C(=O)Cn2cc(C(F)(F)F)ccc2=O)C3c2ccc(OC)cc2)cc1 (stereo unspecified)	8.1	–	IC50 (PBLUC_HILL_SLOPE 4.26, PBLUC_R_SQUARED 0.126, read-out: LUCIFERASE INFECTION ASSAY - IC50): 4.84 µM
Cc1nn(C(C)(C)C)c(C)c1/C=N/OC(=O)Nc1ccc(Cl)cc1	0.27	0.0825	–
CCNc1ccc(S(=O)(=O)C(F)(F)F)cc1NC(=O)c1ccccc1NS(=O)(=O)c1ccc(F)cc1	> 10	1.44	–
C[C@]12CC[C@H](O)C[C@H]1CC[C@@H]1C2CC[C@]2(C)[C@@H](C3=CC(=O)OC3)[C@@H](O)C[C@]12O (stereo partly specified)	8.37	–	IC50 (HEPG2TOX_HILL_SLOPE 3.04, HEPG2TOX_R_SQUARED 0.92, PBLUC_HILL_SLOPE 1.95, PBLUC_R_SQUARED 0.451, read-out: LUCIFERASE INFECTION ASSAY - IC50): 2.7 µM
Cc1cccc(Cn2c(CN3CCCCC3)nc3ccccc32)c1	9.84	–	IC50 (HEPG2TOX_HILL_SLOPE 11.8, HEPG2TOX_R_SQUARED 0.182, PBLUC_HILL_SLOPE 4.42, PBLUC_R_SQUARED 0.595, read-out: LUCIFERASE INFECTION ASSAY - IC50): 5.99 µM
CC(C)c1ccc(NC(=O)CSc2nccc(-c3csc(COc4ccccc4Cl)n3)n2)cc1	> 6.46	> 6.46	–
Cc1cccc(C)c1/N=c1\scc(-c2cccc(Cl)c2)n1/N=C/C1CC=CCC1 (stereo unspecified)	> 10	> 10	–
CN1N=C(SCc2ccc(Cl)cc2Cl)Sc2c1cnn(C)c2=O	> 8.52	–	IC50 (PBLUC_HILL_SLOPE 2.78, PBLUC_R_SQUARED 0.171, read-out: LUCIFERASE INFECTION ASSAY - IC50): 5.14 µM
CCCN1C(=O)/C(=N\OCC(=O)c2cc(C)n(Cc3cccs3)c2C)c2ccccc21	> 10	–	IC50 (HEPG2TOX_HILL_SLOPE 0.794, HEPG2TOX_R_SQUARED 0.3, read-out: LUCIFERASE INFECTION ASSAY - IC50): > 10 µM
